Test: Modifications in the electrocorticogram (ECoG) of unanesthetized animals, R index
Assay type: in vivo
Protocol: Twenty-four hours prior to the test, the surface of a test animal's skull was exposed and stainless steel electrodes were screwed through the lamina externa to make contact with the dura matter in the frontal, parietal and occipital regions, on both sides of the median and transverse sutures. The ECoG was recorded on a REEGA MINI HUIT (Alvar Electronic) encephalograph with a transverse circuit, with bi-frontal, bi-parietal and bi-occipital leads and a longitudinal circuit, with fronto-pariental and parieto-occipital leads on both left and right. One track was used to record respiration, with leads from two steel needles placed under the shin, on either side of the thorax.
Some test animals were kept in restraint cases placed in a relatively soundproof room and some were left free to move in metal cases measuring 40×50×30 cm, which were also kept in a relatively quiet environment.
The activity of the test compounds studied was judged on the one hand by the pattern of spontaneous electrogenesis, especially by the relative degree to which the three basic rhythms of the ECoG in the animals were represented; the theta rhythm (4-8 c/sec.), predominant and characteristic of the state of wakefulness in the posterior regions; bursts of rapid spiked waves (alpha rhythm, 9-15 c/sec.) recorded in the course of diffused wakefulness, and slow waves (delta rhythm, 0.5-3 c/sec.) which are absent in a state of wakefulness except in pathological conditions or in the presence of medicinal substances, a rhythm characteristic of slow-wave sleep. The rapid, low-voltage beta rhythm, not very characteristic of the ECoG in the test animals used and primarily superimposed on the other rhythms, was not analyzed.
Possible modifications in cortical reactivity were also investigated, using two types of stimulation, one comprised an auditory stimulus (whistle blasts) and the other a nociceptive stimulus delivered to the cutaneous nerve endings by pinching the dorsal skin with Kocher's clamps.
To the foregoing qualitative analysis, a quantitative analysis concerning the evolution of spontaneous electrogenesis under the influence of test compounds 1 and 4 was added. The activity of the two compounds was judged by variations in an "R" index, defined as the ratio between the theta waking rhythm, slow waves and bursts of rapid spiked waves. Initially, R was evaluated quantitatively on a scale from 0 to 4 and after this initial estimate, variations in the R index were rated on a scale from 0 to 5 as follows:
1. Maintenance of the value calculated in making the reference tracking (basal value) 0 since variation is nil.
2. Reduction in basal values
(a) reduction of basal value by one-half -1.
(b) observed value between 1/2 and 1/5 of basal value -2.
(c) observed value between 1/5 and 1/10 of basal value -3.
(d) observed value between 1/10 and 1/20 of basal value -4.
(e) observed value lower than 1/20 of basal value, reflecting maximum perturbation of spontaneous ECoG and expressing either a pathological condition or a state of slow-wave sleep, with the absence of theta rhythms and the exclusive presence of slow waves and/or bursts of rapid spiked waves -5.
Once the various values were allocated to each animal, the mean of these values were calculated for each experimental period. From these means, calculations were made of the percentages of variation as compared to a theoretical maximum value of -5 for each experimental period. The percentage for each period was calculated every 30 minutes for 7 hours, with a theoretical total of -10 per hour, then between 7 and 48 hours (theoretical total […]) and between the time of administering the test compound and the 48th hour (theoreticaltotal -90). Variations of 10% were not regarded as significant. All dosages were administered intragastrically through the esophageal tube. […]

[1] = 7.5 mg/kg intragastric, 2 Hours
[2] = 7.5 mg/kg intragastric, 3 Hours
[3] = 7.5 mg/kg intragastric, 4 Hours
[4] = 7.5 mg/kg intragastric, 5 Hours
[5] = 7.5 mg/kg intragastric, 6 Hours
[6] = 7.5 mg/kg intragastric, 7 Hours
[7] = 7.5 mg/kg intragastric, 48 Hours (7-48 h)
[8] = 7.5 mg/kg intragastric, After 48 Hours (0-48 h total)
[9] = 15.0 mg/kg intragastric, 1 Hour
[10] = 15.0 mg/kg intragastric, 2 Hours
[11] = 15.0 mg/kg intragastric, 3 Hours
[12] = 15.0 mg/kg intragastric, 4 Hours
[13] = 15.0 mg/kg intragastric, 5 Hours
[14] = 15.0 mg/kg intragastric, 6 Hours
[15] = 15.0 mg/kg intragastric, 7 Hours
[16] = 15.0 mg/kg intragastric, 48 Hours (7-48 h)
[17] = 15.0 mg/kg intragastric, After 48 Hours (0-48 h total)
[18] = 30.0 mg/kg intragastric, 1 Hour
[19] = 30.0 mg/kg intragastric, 2 Hours
[20] = 30.0 mg/kg intragastric, 3 Hours
[21] = 30.0 mg/kg intragastric, 4 Hours
[22] = 30.0 mg/kg intragastric, 5 Hours
[23] = 30.0 mg/kg intragastric, 6 Hours
[24] = 30.0 mg/kg intragastric, 7 Hours
[25] = 30.0 mg/kg intragastric, 48 Hours (7-48 h)
[26] = 30.0 mg/kg intragastric, After 48 Hours (0-48 h total)

With `C#CCN1C(=O)CN=C(c2ccccc2Cl)c2cc(Cl)ccc21` [Compound 4, 7-chloro-2,3-dihydro-5-(2-chlorophenyl)-1-propargyl-1,H-1,4-benzodiazepine-2-one] the “duration of effect on spontaneous electrogenesis” value (1.5 mg/kg) was 2 h, the “latency of the effects” value (1.5 mg/kg) was 25 min and the “average duration of effect on spontaneous electrogenesis” value (3.75 mg/kg) was 4 h. For the same compound, the “R index variation, Mean” value (7.5 mg/kg intragastric, 1 Hour) was -9.5, the “R index, % of Variation” value (7.5 mg/kg intragastric, 1 Hour) was -63.3% and the “R index variation, Mean” value [1] was -7.5. For the same compound, the “R index, % of Variation” value [1] was -75.0%, the “R index variation, Mean” value [2] was -6.0 and the “R index, % of Variation” value [2] was -60.0%. For the same compound, the “R index variation, Mean” value [3] was -3.0, the “R index, % of Variation” value [3] was -30.0% and the “R index variation, Mean” value [4] was -4.5. For the same compound, the “R index, % of Variation” value [4] was -45.0%, the “R index variation, Mean” value [5] was -1.5 and the “R index, % of Variation” value [5] was -15.0%. For the same compound, the “R index variation, Mean” value [6] was -1.00, the “R index, % of Variation” value [6] was -10.0% and the “R index variation, Mean” value [7] was 0. For the same compound, the “R index, % of Variation” value [7] was 0%, the “R index variation, Mean” value [8] was -33.0 and the “R index, % of Variation” value [8] was -36.7%. For the same compound, the “R index variation, Mean” value [9] was -13.0, the “R index, % of Variation” value [9] was -86.7% and the “R index variation, Mean” value [10] was -8.5. The “R index, % of Variation” value [10] was -85.0%, the “R index variation, Mean” value [11] was -7.0 and the “R index, % of Variation” value [11] was -70.0%. For the same compound, the “R index variation, Mean” value [12] was -5.5, the “R index, % of Variation” value [12] was -55.0% and the “R index variation, Mean” value [13] was -5.0. The “R index, % of Variation” value [13] was -50.0%, the “R index variation, Mean” value [14] was -1.5 and the “R index, % of Variation” value [14] was -15.0%. For the same compound, the “R index variation, Mean” value [15] was -1.50, the “R index, % of Variation” value [15] was -15.0% and the “R index variation, Mean” value [16] was “+1.50”. For the same compound, the “R index, % of Variation” value [16] was “+10.0%”, the “R index variation, Mean” value [17] was -40.5 and the “R index, % of Variation” value [17] was -45.0%. For the same compound, the “Cortical reactivity induced by exteroceptive stimulation” value (30 mg/kg) was “remained unchanged”, the “R index variation, Mean” value [18] was -6.99 and the “R index, % of Variation” value [18] was -46.7%. For the same compound, the “R index variation, Mean” value [19] was -5.32, the “R index, % of Variation” value [19] was -53.2% and the “R index variation, Mean” value [20] was -6.32. For the same compound, the “R index, % of Variation” value [20] was -63.2%, the “R index variation, Mean” value [21] was -4.99 and the “R index, % of Variation” value [21] was -49.9%. For the same compound, the “R index variation, Mean” value [22] was -2.99, the “R index, % of Variation” value [22] was -29.9% and the “R index variation, Mean” value [23] was -2.33. The “R index, % of Variation” value [23] was -23.3%, the “R index variation, Mean” value [24] was -0.66 and the “R index, % of Variation” value [24] was -6.6%. For the same compound, the “R index variation, Mean” value [25] was -1.98, the “R index, % of Variation” value [25] was -13.2% and the “R index variation, Mean” value [26] was -31.58. For the same compound, the “R index, % of Variation” value [26] was -35.1% and the “duration of effects on spontaneous electrogenesis” value (7.5, 15 and 30 mg/kg) was “at least 5 hours”.

From US4313943A, “7-Chloro-2,3-dihydro-5-phenyl-1-propargyl-1H-1,4-benzodiazepine-2-one, and a pharmaceutical composition thereof” (priority 1972, dated 1982)
